Test results: patent publication US20110269812A1, “NOVEL BENZYLIDENE-INDOLINONE AND THEIR MEDICAL AND DIAGNOSTIC USES” (Agency for Science, Technology and Research, priority 2008, published 2011)
Like-named read-outs stand apart in the source and are kept apart here.

Columns and labels:
[1] = tested on: HCT116 (human colon cancer cell line); experiment: Antiproliferative MTT assay, HCT116; type: cell-based; conditions: 72 h incubation, mean ± SD
Method: (§1) The antiproliferative activity of the compounds according to the invention was determined by the MTT assay on the following cell lines: MCF7 (human breast cancer cell line), HCT116 (human colon cancer cell line), and CCL186 (normal human diploid embryonic lung fibroblast). […] MCF7 and CCL186 cells were cultured in Eagle's Minimum Essential Medium (EMEM) with 1 mM sodium pyruvate, 1.5 g/L sodium bicarbonate, 2 mM L-glutamine supplemented with 10% FBS and 0.01% antibiotics. HCT116 cells were cultured in McCoy's 5A Medium with 2.2 g/L sodium bicarbonate supplemented with […] and 0.01% antibiotics. Cells were plated at the following densities: 10000 cells/well (MCF7), 4000 cells/well (HCT116), 5000 cells/well (CCL186). They were grown for 24 h in a 96-well plate, with 100 μl of corresponding medium in each well. The test compounds were prepared in DMSO and diluted to a series of concentrations with medium. Not more than 1% DMSO (final concentration) was present in each well. The test compounds were incubated with the cells for 72 h, after which 100 μl MTT solution (0.5 mg/ml in 1× PBS) was added for 3 h and the cells lysed to release the formazan product. The latter was dissolved in DMSO (150 μl) and absorbance determined within 30 min at 590 nm on a microtitre plate reader. Cell survival was given by the expression:
(§2) Cell survival (%)=[(Acells+test compound−Ablank)/(Auntreated cells−Ablank)]×100
(§3) where A is the absorbance of formazan measured at 590 nm in the test (Acells+test compound), control (Auntreated cells) or blank (Ablank) wells. Each concentration of test compound was evaluated on 3 separate occasions. […] The MTT assay was also carried out on Hepa1c1c7 cells for the purpose of determining cytotoxicity of test compounds. The same procedure was adopted except that the incubation period of compound with cells was 48 h, instead of 72 h.
(§4) The compounds were initially screened at a fixed concentration of 10 μM on the human cancer cell lines HCT116 and MCF7 cells.

[2] = tested on: CYP1A1; experiment: 7-ethoxyresorufin O-deethylase (EROD) assay, CYP1A1 induction in Hepa1c1c7 cells; type: cell-based, murine; conditions: 48 h
Method: Hepa1c1c7 cells were plated at a density of 10000 cells per well in a 96-well plate and cultured for 24 h. A stock solution of test compound was prepared in DMSO and serially diluted with medium to give the desired concentration in the well. The final concentration of DMSO was 0.5% v/v. The cells were incubated with test compound for 48 h, after which the medium was removed, the well washed with 200 μl of 1×phosphate-buffered saline solution (PBS) and then incubated with 5 μM 7-ethoxyresorufin and 2 mM salicylamide in 200 μl of medium at 37° C., 40 min. Readings were taken at λexcitation of 530 nm and λemission of 590 nm on a fluorometer. Fluorescence (if any) of the test compound was determined at the same wavelengths to take into account its contribution to the observed readings. Readings of empty wells (no cells, “blank”) and wells with Hepa1c1c7 cells in medium containing 0.5% DMSO but without test compound (“control”) were also determined. TCDD, a strong inducer of CYP1A1 activity, as well as BNF and sulforaphane were used as controls.
CYP1A1 induction activity was given by the expression:
Degree of induction=FCells+test compound−FBlank/FControl−FBlank
The EROD assay was used for this purpose (Burke, M. D.; Mayer, R. T., Drug Metab Dispos 1974, 2, 583). EROD activity describes the rate at which CYP1A1 caused the O-deethylation of 7-ethoxyresorufin to resorufm. […] This ratio was determined for compounds at concentrations that were approximately 4 times their CD values. A fixed concentration was not used here because it would be difficult to select this concentration in view of the large variation in NQO1 induction activities. The quotient of NQO1 and CYP1A1 induction ratios (ratio determined at the same concentration) was also obtained for each compound. Values >1 would imply greater induction of NQO1 relative to CYP1A1.

[3] = tested on: HCT116 cells; experiment: Cell cycle of synchronized HCT116 cells by flow cytometry (FACS); type: cell-based, human; conditions: for Proportion of cells in G1 / Proportion of cells in G2/M / Proportion of cells in S / Proportion of cells in Sub-G1: 24 h; for type of cell cycle arrest caused: HCT116 cells, ≈1.5 × IC50, 24 h
Method: HCT116 cells were grown to confluence and maintained in this state for at least 5 days without change of media. The serum starved cells were then trypsinized and subcultured at densities of 5×10^5 cells/well in six-well plates. Growth media contained 10% fetal calf serum. The test compound was added either immediately to cells synchronized at G1 phase, or 24 h later when cells were synchronized at G2 phase. The cells were incubated with test compound for 24 h from the time of addition. After this time, the cells were harvested, trypsinized and fixed in 70% ice-cold ethanol for a minimum of 24 h. After centrifugation, the supernatant was discarded and the pellet was treated with RNase A (200 μg/ml) for 30 min at room temperature, followed by cell staining using propidium iodide at a final concentration of 20 μg/ml. The stained cells were then analyzed for cell cycle distribution in the sub-G1, G1, S and G2/M phases on a Dako Cytomation Cyan LX (Dako Colorado, Fort Collins, Colo., USA) equipped with an argon solid state laser (488 nm) using the Summit (version 4.3) software. Compounds were tested at a concentration of ≈1.5×IC50, with IC50 determined by the MTT assay on HCT116 cells.
To have a better understanding of the mechanisms underlying the antiproliferative activities of the compounds listed in Table 5, their effects on the cell cycle was investigated by fluorescence-activated cell sorter (FACS) analysis using flow cytometry. The experiments were designed to examine the effects of the test compounds on synchronized cell populations at the GI or G2/M phase. G1 synchronized cells were obtained by growing cells to confluence for up to 5 days and then stimulating their re-entry into the cell cycle by sub-culturing at lower densities. After 24 hours of growth, these cells would be aligned at the G2/M phase.
Cells aligned at the G2/M phase were similarly treated.

[4] = tested on: MCF7 (human breast cancer cell line); experiment: Antiproliferative MTT assay, MCF7; type: cell-based; conditions: 72 h incubation, mean ± SD, n = 3, read-out: IC50 MCF-7
Method: as §1, §2, §3, §4

[5] = tested on: NQO1; experiment: Induction of NQO1 (QR) activity in Hepa1c1c7 cells
[6] = tested on: CCL186 (normal human diploid embryonic lung fibroblast); experiment: Antiproliferative MTT assay, CCL186; type: cell-based; conditions: for IC50: Homo sapiens, CCL186, MTT, 72 h incubation, mean ± SD, n = 3, read-out: IC50 CCL-186; for selectivity ratio: IC50 CCL186/IC50 MCF7 or IC50 CCL186/IC50 HCT116: normal vs cancer cell line
Method: as §1, §2, §3

[7] = Homo sapiens, HCT-116, 72 h, n = 3
[8] = HCT 116 cells released from G1 Block, 15 μM
[9] = HCT 116 cells released from G2 Block, 15 μM
[10] = HCT 116 cells released from G1 Block, 5 μM
[11] = HCT 116 cells released from G2 Block, 5 μM
[12] = HCT 116 cells released from G2 Block, 2.5 μM

SMILES	IC50 ([1]; n = 3, read-out: IC50 HCT-116)	IC50 [1, 7]	Proportion of cells in G1 [3, 8]	Proportion of cells in G2/M [3, 8]	Proportion of cells in S [3, 8]	Proportion of cells in Sub-G1 [3, 8]	Proportion of cells in G1 [3, 9]	Proportion of cells in G2/M [3, 9]	Proportion of cells in S [3, 9]	Proportion of cells in Sub-G1 [3, 9]	type of cell cycle arrest caused [3]	melting point	IC50 [4]	IC50 [6]	NQO1 induction ratio ([5]; 0.05 μM, read off from plot)	NQO1/CYP1A1 Quotient ([5]; both ratios at 0.05 μM)	selectivity ratio: IC50 CCL186/IC50 MCF7 or IC50 CCL186/IC50 HCT116 [6]	CYP1A1 induction ratio ([2]; 0.5 μM)	NQO1 induction ratio ([5]; 0.5 μM, read off from plot)	NQO1/CYP1A1 Quotient ([5]; both ratios at 0.5 μM)	further results
COc1ccc2c(c1)NC(=O)/C2=C/c1ccc(OC)c(O)c1 [Compound 45, (E)-3-(3-Hydroxy-4-methoxybenzylidene)-6-methoxyindolin-2-one]	7.8 ± 0.9 µM	< 10 µM	17.49%	56.49%	21.13%	5.26%	26.01%	43.57%	15.36%	15.54%	G2 arrest	184 to 186 °C	3.7 ± 0.3 µM	11.3 ± 0.4 µM							CYP1A1 induction ratio ([2]; 1 μM): 1.05 ± 0.01; NQO1 induction ratio ([5]; 1 μM, read off from plot of degree of induction versus concentration): 4.34; NQO1/CYP1A1 Quotient ([5]; both ratios at 1 μM): 4.13
O=C1Nc2cc(F)ccc2/C1=C\c1cccc(C(F)(F)F)c1 [Compound 46, (E)-6-Fluoro-3-(3-(trifluoromethyl)benzylidene)indolin-2-one]	8.9 ± 0.3 µM	< 10 µM	64.93%	14.58%	8.04%	12.68%	64.15%	25.00%	8.82%	2.49%	G1 arrest	132 to 135 °C	8.4 ± 0.3 µM	7.5 ± 0.7 µM	3.31	2.69	~1				CYP1A1 induction ratio ([2]; 0.05 μM): 1.23 ± 0.08; IC50 ([4]; Homo sapiens, MCF7, 72 h): < 10 µM
COc1ccc2c(c1)NC(=O)/C2=C/c1cccc(C(F)(F)F)c1 [Compound 48, (E)-6-Methoxy-3-(3-(trifluoromethyl)benzylidene)indolin-2-one]	3.8 ± 0.6 µM										G2 arrest	157 to 160 °C	1.9 ± 0.5 µM	5.4 ± 0.3 µM				1.36 ± 0.07	4.22	3.10	Proportion of cells in G1 [3, 10]: 17.50%; Proportion of cells in G2/M [3, 10]: 59.16%; Proportion of cells in S [3, 10]: 19.12%; Proportion of cells in Sub-G1 [3, 10]: 4.39%; Proportion of cells in G1 [3, 11]: 30.55%; Proportion of cells in G2/M [3, 11]: 31.58%; Proportion of cells in S [3, 11]: 17.96%; Proportion of cells in Sub-G1 [3, 11]: 20.69%
O=C1Nc2cc(Cl)ccc2/C1=C\c1cccc(C(F)(F)F)c1 [Compound 47, (E)-6-Chloro-3-(3-(trifluoromethyl)benzylidene)indolin-2-one]	7.5 ± 0.4 µM	< 10 µM	65.55%	15.13%	7.10%	12.39%	53.47%	28.39%	8.05%	10.62%	G1 arrest	204 to 207 °C	3.8 ± 0.3 µM	6.6 ± 0.5 µM	5.20	2.17	~1				
COc1cccc(/C=C2/C(=O)Nc3cc(OC)ccc32)c1 [Compound 42, (E)-6-Methoxy-3-(3-methoxybenzylidene)indolin-2-one]	1.3 ± 0.4 µM										G2 arrest	161 to 163 °C	1.2 ± 0.4 µM	1.8 ± 0.2 µM				1.13 ± 0.01	3.08	2.72	Proportion of cells in G1 [3, 12]: 26.01%; Proportion of cells in G2/M [3, 12]: 43.57%; Proportion of cells in S [3, 12]: 15.36%; Proportion of cells in Sub-G1 [3, 12]: 30.54%
